From patent US11446287B2, “Compounds and methods for EP300 or CBP modulation and indications therefor” (Opna Immuno-Oncology SA, priority 2019, dated 2022)

target: T1, Recombinant human CBP containing the bromodomain (CBP-BD (1043-1159)) (Homo sapiens, UniProt Q92793); assay: CBP Alphascreen binding assay; conditions: read-out: CREBBP (CBP) IC50
T1 construct: Recombinant human CBP bromodomain (CBP-BD (1043-1159)); made in house; host or cells: E. coli BL21-CodonPlus (DE3), modified pET vector
Outline: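 Buffer: 50 mM HEPES pH 7.5, 50 mM NaCl, 0.01% BSA, 0.01% Triton X-100, 2 mM DTT. The signal was normalised to plate controls and fitted with a four-parameter curve to give IC50.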

T1 sequence (Q92793 1081-1197): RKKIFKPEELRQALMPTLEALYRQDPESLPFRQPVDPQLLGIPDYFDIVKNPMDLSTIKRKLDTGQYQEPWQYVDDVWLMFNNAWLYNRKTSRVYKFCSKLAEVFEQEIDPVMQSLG

SMILES | IC50
Cc1noc(C)c1-c1cnc2c(c1)c(-c1ccc(C(N)=O)cc1)cn2C(c1ccccn1)C1CCCC1 (stereo not drawn) [P-0020, 4-(1-(cyclopentyl(pyridin-2-yl)methyl)-5-(3,5-dimethylisoxazol-4-yl)-1H-pyrrolo[2,3-b]pyridin-3-yl)benzamide] | 1 to 8 µM
CNC(=O)c1ccc(-c2cn(C(c3ccccn3)C3CCCC3)c3ncc(-c4c(C)noc4C)cc23)cc1 (stereo not drawn) [P-0021, 4-(1-(cyclopentyl(pyridin-2-yl)methyl)-5-(3,5-dimethylisoxazol-4-yl)-1H-pyrrolo[2,3-b]pyridin-3-yl)-N-methylbenzamide] | 1 to 8 µM
Cc1noc(C)c1-c1cnc2c(c1)c(-c1ccc(C#N)cc1)cn2C(c1ccccn1)C1CCCC1 (stereo not drawn) [P-0022, 4-(1-(cyclopentyl(pyridin-2-yl)methyl)-5-(3,5-dimethylisoxazol-4-yl)-1H-pyrrolo[2,3-b]pyridin-3-yl)benzonitrile] | 8 to 1000 µM
Cc1noc(C)c1-c1cnc2c(c1)c(-c1ccc3c(c1)CNC3=O)cn2C(c1ccccn1)C1CCCC1 (stereo not drawn) [P-0023, 5-(1-(cyclopentyl(pyridin-2-yl)methyl)-5-(3,5-dimethylisoxazol-4-yl)-1H-pyrrolo[2,3-b]pyridin-3-yl)isoindolin-1-one] | 1 to 8 µM
Cc1noc(C)c1-c1cnc2c(c1)c(-c1ccc(-c3nn[nH]n3)cc1)cn2C(c1ccccn1)C1CCCC1 (stereo not drawn) [P-0024, 4-(3-(4-(2H-tetrazol-5-yl)phenyl)-1-(cyclopentyl(pyridin-2-yl)methyl)-1H-pyrrolo[2,3-b]pyridin-5-yl)-3,5-dimethylisoxazole] | 1 to 8 µM
Cc1noc(C)c1-c1cnc2c(c1)c(-c1ccc(C(=O)O)c(F)c1)cn2C(c1ccccn1)C1CCCC1 (stereo not drawn) [P-0025, 4-(1-(cyclopentyl(pyridin-2-yl)methyl)-5-(3,5-dimethylisoxazol-4-yl)-1H-pyrrolo[2,3-b]pyridin-3-yl)-2-fluorobenzoic acid] | 0.0001 to 1 µM
Cc1noc(C)c1-c1cnc2c(c1)c(-c1ccc(C(=O)O)nc1)cn2C(c1ccccn1)C1CCCC1 (stereo not drawn) [P-0026, 5-(1-(cyclopentyl(pyridin-2-yl)methyl)-5-(3,5-dimethylisoxazol-4-yl)-1H-pyrrolo[2,3-b]pyridin-3-yl)picolinic acid] | 0.0001 to 1 µM
Cc1cc(-c2c(C(F)(F)F)n([C@@H](C)c3ccccn3)c3cc(-c4c(C)noc4C)cnc23)ccc1C(=O)O [P-0243, (S)-4-(6-(3,5-dimethylisoxazol-4-yl)-1-(1-(pyridin-2-yl)ethyl)-2-(trifluoromethyl)-1H-pyrrolo[3,2-b]pyridin-3-yl)-2-methylbenzoic acid] | 1 to 8 µM
COc1cc(-c2c(C(F)(F)F)n([C@@H](C)c3ccccn3)c3cc(-c4c(C)noc4C)cnc23)ccc1C(=O)O [P-0244, (S)-4-(6-(3,5-dimethylisoxazol-4-yl)-1-(1-(pyridin-2-yl)ethyl)-2-(trifluoromethyl)-1H-pyrrolo[3,2-b]pyridin-3-yl)-2-methoxybenzoic acid] | 1 to 8 µM
Cc1noc(C)c1-c1cnc2c(-c3cccc(C(=O)O)c3F)c(C(F)(F)F)n([C@@H](C)c3ccccn3)c2c1 [P-0245, (S)-3-(6-(3,5-dimethylisoxazol-4-yl)-1-(1-(pyridin-2-yl)ethyl)-2-(trifluoromethyl)-1H-pyrrolo[3,2-b]pyridin-3-yl)-2-fluorobenzoic acid] | 0.0001 to 1 µM
Cc1noc(C)c1-c1cnc2c(-c3cccc(C(=O)O)c3C)c(C(F)(F)F)n([C@@H](C)c3ccccn3)c2c1 [P-0246, (S)-3-(6-(3,5-dimethylisoxazol-4-yl)-1-(1-(pyridin-2-yl)ethyl)-2-(trifluoromethyl)-1H-pyrrolo[3,2-b]pyridin-3-yl)-2-methylbenzoic acid] | 1 to 8 µM
Cc1noc(C)c1-c1cnc2c(-c3cccc(C(=O)O)c3Cl)c(C(F)(F)F)n([C@@H](C)c3ccccn3)c2c1 [P-0247, (S)-2-chloro-3-(6-(3,5-dimethylisoxazol-4-yl)-1-(1-(pyridin-2-yl)ethyl)-2-(trifluoromethyl)-1H-pyrrolo[3,2-b]pyridin-3-yl)benzoic acid] | 0.0001 to 1 µM
CCOC(=O)c1cc(-c2cn(-c3ccc(F)cc3F)c3ncc(-c4c(C)noc4C)cc23)c(OCC)cc1O [P-0248, ethyl 5-(1-(2,4-difluorophenyl)-5-(3,5-dimethylisoxazol-4-yl)-1H-pyrrolo[2,3-b]pyridin-3-yl)-4-ethoxy-2-hydroxybenzoate] | 8 to 1000 µM
CCOc1cc(O)c(C(=O)O)cc1-c1cn(-c2ccc(F)cc2F)c2ncc(-c3c(C)noc3C)cc12 [P-0249, 5-(1-(2,4-difluorophenyl)-5-(3,5-dimethylisoxazol-4-yl)-1H-pyrrolo[2,3-b]pyridin-3-yl)-4-ethoxy-2-hydroxybenzoic acid] | 0.0001 to 1 µM
CCOc1cc(OC)c(C(=O)O)cc1-c1cn(-c2ccc(F)cc2F)c2ncc(-c3c(C)noc3C)cc12 [P-0250, 5-(1-(2,4-difluorophenyl)-5-(3,5-dimethylisoxazol-4-yl)-1H-pyrrolo[2,3-b]pyridin-3-yl)-4-ethoxy-2-methoxybenzoic acid] | 0.0001 to 1 µM
Cc1noc(C)c1-c1cnc2c(c1)c(-c1ccc(C(=O)O)cc1OC(F)(F)F)cn2-c1cnccc1F [P-0251, 4-(5-(3,5-dimethylisoxazol-4-yl)-1-(4-fluoropyridin-3-yl)-1H-pyrrolo[2,3-b]pyridin-3-yl)-3-(trifluoromethoxy)benzoic acid] | 0.0001 to 1 µM
Cc1noc(C)c1-c1cnc2c(c1)c(-c1ccc(C(=O)O)cc1OC(F)(F)F)cn2-c1cnccc1O [P-0252, 4-(5-(3,5-dimethylisoxazol-4-yl)-1-(4-hydroxypyridin-3-yl)-1H-pyrrolo[2,3-b]pyridin-3-yl)-3-(trifluoromethoxy)benzoic acid] | 0.0001 to 1 µM
Cc1noc(C)c1-c1cnc2c(c1)c(-c1ccc(C(=O)O)cc1OC(F)(F)F)cn2-c1ccncc1Cl [P-0253, 4-(1-(3-chloropyridin-4-yl)-5-(3,5-dimethylisoxazol-4-yl)-1H-pyrrolo[2,3-b]pyridin-3-yl)-3-(trifluoromethoxy)benzoic acid] | 0.0001 to 1 µM
Cc1noc(C)c1-c1cnc2c(c1)c(-c1ccc(C(=O)O)cc1OC(F)(F)F)cn2-c1c(F)cccc1C#N [P-0254, 4-(1-(2-cyano-6-fluorophenyl)-5-(3,5-dimethylisoxazol-4-yl)-1H-pyrrolo[2,3-b]pyridin-3-yl)-3-(trifluoromethoxy)benzoic acid] | 0.0001 to 1 µM
COc1cc(C(=O)O)cc(C)c1-c1cn(-c2ccccc2)c2ncc(-c3c(C)noc3C)cc12 [P-0255, 4-(5-(3,5-dimethylisoxazol-4-yl)-1-phenyl-1H-pyrrolo[2,3-b]pyridin-3-yl)-3-methoxy-5-methylbenzoic acid] | 0.0001 to 1 µM
Cc1noc(C)c1-c1cnc2c(-c3ccc(C(=O)O)cc3C#N)c(C(F)(F)F)n([C@@H](C)c3ccccn3)c2c1 [P-0256, (S)-3-cyano-4-(6-(3,5-dimethylisoxazol-4-yl)-1-(1-(pyridin-2-yl)ethyl)-2-(trifluoromethyl)-1H-pyrrolo[3,2-b]pyridin-3-yl)benzoic acid] | 0.0001 to 1 µM
Cc1noc(C)c1-c1cnc2c(-c3cc(C(=O)O)ccc3Cl)c(C(F)(F)F)n([C@@H](C)c3ccccn3)c2c1 [P-0257, (S)-4-chloro-3-(6-(3,5-dimethylisoxazol-4-yl)-1-(1-(pyridin-2-yl)ethyl)-2-(trifluoromethyl)-1H-pyrrolo[3,2-b]pyridin-3-yl)benzoic acid] | 0.0001 to 1 µM
CCOc1cc(C(=O)O)cc(OCC)c1-n1cc(-c2cnn(CS(C)(=O)=O)c2)c2ncc(-c3c(C)noc3C)cc21 [P-0258, 4-(6-(3,5-dimethylisoxazol-4-yl)-3-(1-((methylsulfonyl)methyl)-1H-pyrazol-4-yl)-1H-pyrrolo[3,2-b]pyridin-1-yl)-3,5-diethoxybenzoic acid] | 0.0001 to 1 µM
CCOc1cc(C(=O)O)cc(OCC)c1-n1cc(-c2cn(C(C)C)nc2C)c2ncc(-c3c(C)noc3C)cc21 [P-0259, 4-(6-(3,5-dimethylisoxazol-4-yl)-3-(1-isopropyl-3-methyl-1H-pyrazol-4-yl)-1H-pyrrolo[3,2-b]pyridin-1-yl)-3,5-diethoxybenzoic acid] | 0.0001 to 1 µM
CCOc1cc(C(=O)O)cc(OCC)c1-n1cc(-c2cnn(CC(C)(C)O)c2)c2ncc(-c3c(C)noc3C)cc21 [P-0260, 4-(6-(3,5-dimethylisoxazol-4-yl)-3-(1-(2-hydroxy-2-methylpropyl)-1H-pyrazol-4-yl)-1H-pyrrolo[3,2-b]pyridin-1-yl)-3,5-diethoxybenzoic acid] | 0.0001 to 1 µM
CCOc1cc(C(=O)O)cc(OCC)c1-n1cc(-c2cnn(C(F)F)c2)c2ncc(-c3c(C)noc3C)cc21 [P-0261, 4-(3-(1-(difluoromethyl)-1H-pyrazol-4-yl)-6-(3,5-dimethylisoxazol-4-yl)-1H-pyrrolo[3,2-b]pyridin-1-yl)-3,5-diethoxybenzoic acid] | 0.0001 to 1 µM
CCOc1cc(C(=O)O)cc(OCC)c1-n1cc(-c2cnn(CCN(C)C)c2)c2ncc(-c3c(C)noc3C)cc21 [P-0262, 4-(3-(1-(2-(dimethylamino)ethyl)-1H-pyrazol-4-yl)-6-(3,5-dimethylisoxazol-4-yl)-1H-pyrrolo[3,2-b]pyridin-1-yl)-3,5-diethoxybenzoic acid] | 0.0001 to 1 µM
CCOc1cc(C(=O)O)cc(OCC)c1-n1cc(-c2cn(C)nc2C)c2ncc(-c3c(C)noc3C)cc21 [P-0263, 4-(3-(1,3-dimethyl-1H-pyrazol-4-yl)-6-(3,5-dimethylisoxazol-4-yl)-1H-pyrrolo[3,2-b]pyridin-1-yl)-3,5-diethoxybenzoic acid] | 0.0001 to 1 µM
CCOc1cc(C(=O)O)cc(OCC)c1-n1cc(-c2cnn(CC3CC3)c2)c2ncc(-c3c(C)noc3C)cc21 [P-0264, 4-(3-(1-(cyclopropylmethyl)-1H-pyrazol-4-yl)-6-(3,5-dimethylisoxazol-4-yl)-1H-pyrrolo[3,2-b]pyridin-1-yl)-3,5-diethoxybenzoic acid] | 0.0001 to 1 µM
CCOc1cc(C(=O)O)cc(OCC)c1-n1cc(-c2cnn(C3CC3)c2)c2ncc(-c3c(C)noc3C)cc21 [P-0265, 4-(3-(1-cyclopropyl-1H-pyrazol-4-yl)-6-(3,5-dimethylisoxazol-4-yl)-1H-pyrrolo[3,2-b]pyridin-1-yl)-3,5-diethoxybenzoic acid] | 0.0001 to 1 µM
